In the supplement of paper PMC8149375:

What was measured:
Settings in all cases: treatment: drug + dasatinib (fixed dose, not stated); 5 days
786-O [1] = test: GI50 of drug in presence of dasatinib; higher = less potent
Description: (§1)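 Primary HTS combination arm: 8 RCC cell lines treated with 8 doses (up to 10 uM) of each library drug plus a fixed dose of dasatinib (dose not stated) for 5 days; viability read by CellTiter-Glo and normalised to DMSO. GI50 was fitted with XLfit, AUC is the area under the dose-response curve, and minimum viability is the lowest fraction of DMSO viability across doses.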

A498 [2] = test: as above
Description: as §1

ACHN [3] = test: as above
Description: as §1

CAKI-1 [4] = test: as above
Description: as §1

TK-10 [5] = test: as above
Description: as §1

UO-31 [6] = test: as above
Description: as §1

769-P [7] = test: minimum viability across doses, drug + dasatinib, relative to DMSO (fraction); higher = less growth inhibition
Description: as §1

786-O [8] = test: as above
Description: as §1

A498 [9] = test: as above
Description: as §1

ACHN [10] = test: as above
Description: as §1

CAKI-1 [11] = test: as above
Description: as §1

SN12C [12] = test: as above
Description: as §1

TK-10 [13] = test: as above
Description: as §1

UO-31 [14] = test: as above
Description: as §1

769-P [15] = test: AUC of dose-response viability curve, drug + dasatinib, normalised to DMSO (arbitrary (AUC of normalised viability)); higher = less growth inhibition
Description: as §1

786-O [16] = test: as above
Description: as §1

A498 [17] = test: as above
Description: as §1

ACHN [18] = test: as above
Description: as §1

CAKI-1 [19] = test: as above
Description: as §1

SN12C [20] = test: as above
Description: as §1

TK-10 [21] = test: as above
Description: as §1

UO-31 [22] = test: as above
Description: as §1

769-P [23] = test: GI50 of drug in presence of dasatinib; higher = less potent
Description: as §1

SN12C [24] = test: as above
Description: as §1

| SMILES | GI50 of drug (786-O [1]) [µM] | GI50 of drug (ACHN [3]) [µM] | GI50 of drug (A498 [2]) [µM] | GI50 of drug (CAKI-1 [4]) [µM] | GI50 of drug (TK-10 [5]) [µM] | GI50 of drug (UO-31 [6]) [µM] | minimum viability across doses (769-P [7]) | minimum viability across doses (786-O [8]) | minimum viability across doses (A498 [9]) | minimum viability across doses (ACHN [10]) | minimum viability across doses (CAKI-1 [11]) | minimum viability across doses (SN12C [12]) | minimum viability across doses (TK-10 [13]) | minimum viability across doses (UO-31 [14]) | AUC of dose-response viability curve (769-P [15]) | AUC of dose-response viability curve (786-O [16]) | AUC of dose-response viability curve (A498 [17]) | AUC of dose-response viability curve (ACHN [18]) | AUC of dose-response viability curve (CAKI-1 [19]) | AUC of dose-response viability curve (SN12C [20]) | AUC of dose-response viability curve (TK-10 [21]) | AUC of dose-response viability curve (UO-31 [22]) | GI50 of drug (769-P [23]) [µM] | GI50 of drug (SN12C [24]) [µM] |
| --- | --- | --- | --- | --- | --- | --- | --- | --- | --- | --- | --- | --- | --- | --- | --- | --- | --- | --- | --- | --- | --- | --- | --- | --- |
| CO[C@H]1CC2CC[C@@H](C)[C@@](O)(O2)C(=O)C(=O)N2CCCC[C@H]2C(=O)O[C@H]([C@H](C)C[C@@H]2CCC(OC(=O)C(C)(CO)CO)[C@H](OC)C2)CC(=O)[C@H](C)/C=C(\C)[C@@H](O)[C@@H](OC)C(=O)[C@H](C)C[C@H](C)/C=C/C=C/C=C/1C (stereo in doubt) [Temsirolimus (Torisel)] + Cc1nc(Nc2ncc(C(=O)Nc3c(C)cccc3Cl)s2)cc(N2CCN(CCO)CC2)n1 [dasatinib] | < 0.003 | 0.00325 | > 10 | 0.0242 | 0.512 | 0.0699 | 0.402 | 0.304 | 0.505 | 0.296 | 0.273 | 0.446 | 0.393 | 0.226 | 1.7 | 1.2 | 1.99 | 1.27 | 1.42 | 1.75 | 1.97 | 1.59 | – | – |
| O=C1NC(=O)/C(=C/c2ccc(-c3ccc(F)cc3O)o2)S1 + Cc1nc(Nc2ncc(C(=O)Nc3c(C)cccc3Cl)s2)cc(N2CCN(CCO)CC2)n1 [dasatinib] | – | > 10 | > 10 | > 10 | > 10 | > 10 | 0.532 | 0.449 | 1.06 | 0.567 | 0.628 | 0.651 | 0.649 | 1.02 | 2.41 | 2.08 | 3.96 | 2.15 | 2.4 | 2.41 | 2.51 | 3.97 | > 10 | > 10 |
| Cc1ccc(NC(=O)c2cccc(N(C)C)c2)cc1NC(=O)c1ccc(O)cc1 + Cc1nc(Nc2ncc(C(=O)Nc3c(C)cccc3Cl)s2)cc(N2CCN(CCO)CC2)n1 [dasatinib] | – | > 10 | > 10 | > 10 | > 10 | > 10 | 0.639 | 0.388 | 0.932 | 0.54 | 0.65 | 0.69 | 0.609 | 1.02 | 2.41 | 2 | 3.67 | 2.1 | 2.43 | 2.52 | 2.37 | 4.5 | > 10 | > 10 |
| O=C1NC(=O)C(c2ccccc2[N+](=O)[O-])=C1Nc1ccc(O)c(Cl)c1 + Cc1nc(Nc2ncc(C(=O)Nc3c(C)cccc3Cl)s2)cc(N2CCN(CCO)CC2)n1 [dasatinib] | – | > 10 | > 10 | > 10 | > 10 | > 10 | 0.629 | 0.339 | 0.789 | 0.506 | 0.591 | 0.67 | 0.646 | 0.748 | 2.42 | 1.73 | 3.1 | 2.02 | 2.31 | 2.5 | 2.42 | 3.6 | > 10 | > 10 |
| Cc1cnc(NC(=O)Nc2cc(Br)c(C)cc2OC[C@@H]2CNCCO2)cn1 + Cc1nc(Nc2ncc(C(=O)Nc3c(C)cccc3Cl)s2)cc(N2CCN(CCO)CC2)n1 [dasatinib] | 0.172 | 0.0369 | 2.12 | 0.388 | 0.559 | 0.833 | 0.0737 | 0.00234 | 0.0633 | 0.0412 | 0.0829 | 0.113 | 0.162 | 0.00521 | 1.71 | 1.43 | 2.99 | 1.21 | 1.71 | 2.27 | 2.01 | 3.07 | – | 2.09 |
| C=CC(=O)N1CCC[C@@H](n2nc(-c3ccc(Oc4ccccc4)cc3)c3c(N)ncnc32)C1 + Cc1nc(Nc2ncc(C(=O)Nc3c(C)cccc3Cl)s2)cc(N2CCN(CCO)CC2)n1 [dasatinib] | – | 0.0814 | > 10 | 3.28 | 0.264 | 8.83 | 0.124 | 0.435 | 0.927 | 0.295 | 0.19 | 0.496 | 0.189 | 0.194 | 1.72 | 2 | 4.62 | 1.61 | 2.18 | 2.28 | 1.83 | 3.83 | 0.212 | > 10 |
| Cl.Cl.NC1(c2ccc(-c3nc4ccn5c(=O)[nH]nc5c4cc3-c3ccccc3)cc2)CCC1 [MK-2206 dihydrochloride] + Cc1nc(Nc2ncc(C(=O)Nc3c(C)cccc3Cl)s2)cc(N2CCN(CCO)CC2)n1 [dasatinib] | 2.41 | 0.0241 | > 10 | 0.111 | 1.11 | 1.74 | 0.234 | 0.224 | 0.755 | 0.202 | 0.102 | 0.551 | 0.263 | 0.0262 | 2.05 | 2.02 | 2.94 | 1.45 | 1.69 | 2.18 | 2.1 | 2.61 | – | > 10 |

Further lines, with some results ahead:

| GI50 of drug (786-O [1]) [µM] | GI50 of drug (ACHN [3]) [µM] | SMILES | GI50 of drug (A498 [2]) [µM] | GI50 of drug (CAKI-1 [4]) [µM] | GI50 of drug (TK-10 [5]) [µM] | GI50 of drug (UO-31 [6]) [µM] | minimum viability across doses (769-P [7]) | minimum viability across doses (786-O [8]) | minimum viability across doses (A498 [9]) | minimum viability across doses (ACHN [10]) | minimum viability across doses (CAKI-1 [11]) | minimum viability across doses (SN12C [12]) | minimum viability across doses (TK-10 [13]) | minimum viability across doses (UO-31 [14]) | AUC of dose-response viability curve (769-P [15]) | AUC of dose-response viability curve (786-O [16]) | AUC of dose-response viability curve (A498 [17]) | AUC of dose-response viability curve (ACHN [18]) | AUC of dose-response viability curve (CAKI-1 [19]) | AUC of dose-response viability curve (SN12C [20]) | AUC of dose-response viability curve (TK-10 [21]) | AUC of dose-response viability curve (UO-31 [22]) | GI50 of drug (769-P [23]) [µM] | GI50 of drug (SN12C [24]) [µM] |
| --- | --- | --- | --- | --- | --- | --- | --- | --- | --- | --- | --- | --- | --- | --- | --- | --- | --- | --- | --- | --- | --- | --- | --- | --- |
| – | 0.0114 | CNC(=O)CN1CCC(Oc2cc3c(Nc4cccc(Cl)c4F)ncnc3cc2OC)CC1 [AZD8931] + Cc1nc(Nc2ncc(C(=O)Nc3c(C)cccc3Cl)s2)cc(N2CCN(CCO)CC2)n1 [dasatinib] | 1.04 | 2.99 | 0.477 | 4.66 | 0.15 | 0.262 | 0.284 | 0.233 | 0.332 | 0.569 | 0.277 | 0.344 | 1.69 | 1.88 | 2.24 | 1.24 | 2.11 | 2.3 | 1.99 | 2.96 | 0.135 | > 10 |
| > 10 | 0.0857 | COc1cc2ncnc(Nc3ccc(F)c(Cl)c3)c2cc1OCCCN1CCOCC1 [Gefitinib (Iressa)] + Cc1nc(Nc2ncc(C(=O)Nc3c(C)cccc3Cl)s2)cc(N2CCN(CCO)CC2)n1 [dasatinib] | > 10 | 1.73 | 1.07 | 6.18 | 0.177 | 0.56 | 0.808 | 0.187 | 0.169 | 0.588 | 0.267 | 0.3 | 1.72 | 2.56 | 3.49 | 1.56 | 2.08 | 2.49 | 2.22 | 2.9 | – | > 10 |
| – | > 10 | Cc1ccc(NC(=O)c2ccc(CN3CCN(C)CC3)cc2)cc1Nc1nccc(-c2cccnc2)n1 [Imatinib (Gleevec)] + Cc1nc(Nc2ncc(C(=O)Nc3c(C)cccc3Cl)s2)cc(N2CCN(CCO)CC2)n1 [dasatinib] | > 10 | 8.89 | > 10 | > 10 | 0.586 | 0.336 | 0.817 | 0.523 | 0.491 | 0.68 | 0.624 | 0.883 | 2.43 | 1.67 | 3.24 | 2.06 | 2.22 | 2.55 | 2.45 | 3.84 | > 10 | > 10 |
| > 10 | 2.89 | Cc1cn(-c2cc(NC(=O)c3ccc(C)c(Nc4nccc(-c5cccnc5)n4)c3)cc(C(F)(F)F)c2)cn1 [Nilotinib (AMN-107)] + Cc1nc(Nc2ncc(C(=O)Nc3c(C)cccc3Cl)s2)cc(N2CCN(CCO)CC2)n1 [dasatinib] | > 10 | 7.79 | > 10 | 4.88 | 0.331 | 0.717 | 0.811 | 0.461 | 0.491 | 0.687 | 0.524 | 0.262 | 1.98 | 2.77 | 3.37 | 2 | 2.38 | 2.55 | 2.53 | 3.2 | – | > 10 |
| – | 3.32 | CNC(=O)c1cc(Oc2ccc(NC(=O)Nc3ccc(Cl)c(C(F)(F)F)c3)c(F)c2)ccn1 [Regorafenib (BAY 73-4506)] + Cc1nc(Nc2ncc(C(=O)Nc3c(C)cccc3Cl)s2)cc(N2CCN(CCO)CC2)n1 [dasatinib] | 2.67 | 2.98 | 5.85 | 4.41 | 0.37 | 0.471 | 0.415 | 0.153 | 0.125 | 0.434 | 0.415 | 0.122 | 2.3 | 2.26 | 3.1 | 2.05 | 2.24 | 2.47 | 2.45 | 2.77 | 4.04 | 7.18 |
| – | 0.0127 | CC(C)(O)CC(=O)NCCn1ccc2ncnc(Nc3ccc(Oc4cccc(C(F)(F)F)c4)c(Cl)c3)c21 [TAK-285] + Cc1nc(Nc2ncc(C(=O)Nc3c(C)cccc3Cl)s2)cc(N2CCN(CCO)CC2)n1 [dasatinib] | > 10 | 2.35 | 0.568 | 6.24 | 0.22 | 0.338 | 0.83 | 0.172 | 0.311 | 0.556 | 0.346 | 0.224 | 2.18 | 1.8 | 3.25 | 1.28 | 2.15 | 2.44 | 1.99 | 3.97 | 1.7 | > 10 |
| 2.49 | 0.0748 | C=CC(=O)Nc1cccc(Oc2nc(Nc3ccc(N4CCN(C)CC4)cc3OC)ncc2Cl)c1 [WZ4002] + Cc1nc(Nc2ncc(C(=O)Nc3c(C)cccc3Cl)s2)cc(N2CCN(CCO)CC2)n1 [dasatinib] | 9.59 | 1.18 | 0.617 | 1.34 | 0.2 | 0.405 | 0.459 | 0.0147 | 0.145 | 0.0353 | 0.0404 | 0.0152 | 2.02 | 2.22 | 3.2 | 1.37 | 1.87 | 2.29 | 1.97 | 2.67 | – | 2.42 |
